Results: PMC10611578, “Aβ1-6A2V(D) peptide, effective on Aβ aggregation, inhibits tau misfolding and protects the brain after traumatic brain injury” (Molecular Psychiatry, 2023)
Square brackets hold non-standard residues; d marks the D form. Peptide text beside a SMILES is read from it.

Tests used:
[1] = tested on: misfolded toxic tau in P301L mouse brain homogenate; C. elegans; assay type: in vivo, Caenorhabditis elegans (Bristol N2)
Description: Bristol N2 nematodes were obtained from the Caenorhabditis elegans Genetic Center (CGC, University of Minnesota, Minneapolis, MN, USA) and propagated at 20 °C on solid Nematode Growth Medium (NGM) seeded with E. coli OP50 (CGC) for food. We used the bleaching technique to prepare age-synchronized animals. C. elegans at the first larval stage were then transferred to fresh NGM plates and grown at 20 °C. At the L3-L4 larval stage, nematodes were collected with M9 buffer, centrifuged, and washed twice with 10 mM PBS (pH 7.4) to eliminate bacteria. Worms were incubated for 2 h at room temperature with orbital shaking, in the absence of E. coli, with brain homogenates from Non-tg and P301L mice (30 µg protein/100 worms/100 µL 10 mM PBS, pH 7.4) in the presence or absence of 50 µM Aβ1-6A2V(D), 50 µM TAT, or 0.1–200 µM Aβ1-6A2V-TAT(D). Control worms were treated with 10 mM PBS, pH 7.4 (Vehicle), 50 µM Aβ1-6A2V (D), 50 µM Aβ1-6A2V-TAT(D) or 50 µM TAT (100 worms/100 µL). Pericontusional tissue homogenates from young WT TBI mice 12 months post-injury or aged-matched sham mice were administered to worms (30 µg protein/100 worms/100 µL) in the absence or presence of 50 µM Aβ1-6A2V-TAT(D). Pericontusional tissue homogenates from 3xTg-AD TBI mice, as well as pericontusional tissues from aged WT TBI, previously treated or not with intranasal 50 mg/kg b.w. […] Homogenates from naive or sham mice were administered to worms as controls for 3xTg-AD and aged WT TBI mice, respectively ((30 µg protein/100 worms/100 µL 10 mM PBS, pH 7.4). As an additional negative control, 10 mM PBS, pH 7.4 (100 worms/100 µL) was administered to nematodes. Worms were then plated onto NGM plates seeded with OP50 E. coli, grown at 20 °C, and transferred every day to new NGM plates seeded with E. coli to avoid overlapping generations. The locomotor activity of nematodes was scored 7 days after the treatment in blind conditions and expressed as the body bends/min [26]. […]

[2] = tested on: abnormal tau in WT TBI mouse brain homogenate; C. elegans; assay: Locomotor activity of C. elegans exposed to brain homogenate of WT TBI mice 12 months post-injury; assay type: in vivo, Caenorhabditis elegans (Bristol N2); settings: 50 µM peptide, pericontusional tissue 12 months post-injury, 30 µg protein/100 worms/100 µL, 7 days after treatment; N = 30
Description: Bristol N2 nematodes were obtained from the Caenorhabditis elegans Genetic Center (CGC, University of Minnesota, Minneapolis, MN, USA) and propagated at 20 °C on solid Nematode Growth Medium (NGM) seeded with E. coli OP50 (CGC) for food. We used the bleaching technique to prepare age-synchronized animals. C. elegans at the first larval stage were then transferred to fresh NGM plates and grown at 20 °C. At the L3-L4 larval stage, nematodes were collected with M9 buffer, centrifuged, and washed twice with 10 mM PBS (pH 7.4) to eliminate bacteria. […] Homogenates from naive or sham mice were administered to worms as controls for 3xTg-AD and aged WT TBI mice, respectively ((30 µg protein/100 worms/100 µL 10 mM PBS, pH 7.4). As an additional negative control, 10 mM PBS, pH 7.4 (100 worms/100 µL) was administered to nematodes. Worms were then plated onto NGM plates seeded with OP50 E. coli, grown at 20 °C, and transferred every day to new NGM plates seeded with E. coli to avoid overlapping generations. The locomotor activity of nematodes was scored 7 days after the treatment in blind conditions and expressed as the body bends/min [26]. […]

[3] = tested on: insoluble tau (P301L mouse brain homogenate); assay: Detergent insolubility assay of tau in P301L brain lysate; assay type: biochemical, human tau with P301L mutation, JNPL3 mice; settings: 50 µM, 2 h at 25 °C, PBS pH 7.4; mean ± SD, N = 4-5

## CC(C)[C@@H](NC(=O)[C@H](N)CC(=O)O)C(=O)N[C@H](CCC(=O)O)C(=O)N[C@H](Cc1ccccc1)C(=O)N[C@H](CCCNC(=N)N)C(=O)N[C@H](Cc1c[nH]cn1)C(=O)NCC(=O)NCC(=O)NCC(=O)NCC(=O)NCC(=O)N[C@H](CCCNC(=N)N)C(=O)N[C@H](CCCCN)C(=O)N[C@H](CCCCN)C(=O)N[C@H](CCCNC(=N)N)C(=O)N[C@H](CCCNC(=N)N)C(=O)N[C@H](CCC(N)=O)C(=O)N[C@H](CCCNC(=N)N)C(=O)N[C@H](CCCNC(=N)N)C(=O)N[C@H](CCCNC(=N)N)C(=O)O [Aβ1-6A2V-TAT(D)] (H-[dD][dV][dE][dF][dR][dH]GGGGG[dR][dK][dK][dR][dR][dQ][dR][dR][dR]-OH; N-terminus assumed)
[1]; 0-200 µM peptide, body bends 7 days after treatment
  Dose dependence of the protection of worms from P301L brain homogenate: The effect was dose-dependent
[1]; 30 µg protein/100 worms/100 µL, body bends 7 days after treatment, 50 µM peptide
  Protection of worms from toxicity of P301L brain homogenate: protected worms from the toxicity caused by P301L brain homogenates
[1]; 0.1–200 µM peptide, 30 µg protein/100 worms/100 µL, 2 h exposure at room temperature, PBS pH 7.4, body bends 7 days after treatment, three independent experiments (N = 30), read-out: IC50 for protection of worms from P301L brain homogenate toxicity
  IC50: 25.6 µM
[2]
  Reversal of toxic effect of WT TBI brain homogenate in C. elegans: completely reverted
[3]
  Fraction of insoluble tau in P301L brain homogenate: without affecting the fraction of insoluble tau
